Test results reported in the NIST ThermoML archive (doi:10.1021/je900091b).

Tests used:
[1] = Liquid
[2] = xn = mol fraction of the nth substance listed; conditions: Liquid, x2 = 0

C=C(C)C(=O)OC [methyl methacrylate]
[1]
Conditions | mass density [kg/m3] | viscosity [mPa·s]
283.15 K | 954.802 | 0.6808
288.15 K | 949.097 | 0.6337
293.15 K | 943.365 | 0.5899
298.15 K | 937.615 | 0.554
303.15 K | 931.837 | 0.5248
308.15 K | 926.032 | 0.4956
313.15 K | 920.185 | 0.4719
318.15 K | 914.317 | 0.4497
323.15 K | 908.405 | 0.4294
328.15 K | 902.468 | 0.41
333.15 K | 896.479 | 0.3938
343.15 K | 884.418 | 0.3636
353.15 K | 872.129 | 0.3398

CCCCn1cc[n+](C)c1.F[P-](F)(F)(F)(F)F [1-butyl-3-methylimidazolium hexafluorophosphate] + C=C(C)C(=O)OC
[2]
Conditions | mass density [kg/m3] | viscosity [mPa·s]
283.15 K | 1380.34 | 802.09
288.15 K | 1376.06 | 552.57
293.15 K | 1371.8 | 389.81
298.15 K | 1367.53 | 282.24
303.15 K | 1363.28 | 209.25
308.15 K | 1359.19 | 159.15
313.15 K | 1355.09 | 123.38
318.15 K | 1350.98 | 97.78
323.15 K | 1346.87 | 78.77
328.15 K | 1342.78 | 61.34
333.15 K | 1338.7 | 50.38
343.15 K | 1330.56 | 35.25
353.15 K | 1322.47 | 25.76

CCCCn1cc[n+](C)c1.F[P-](F)(F)(F)(F)F [1-butyl-3-methylimidazolium hexafluorophosphate]
[1]
Conditions | mass density [kg/m3] | viscosity [mPa·s]
283.15 K | 1380.34 | 802.09
288.15 K | 1376.06 | 552.57
293.15 K | 1371.8 | 389.81
298.15 K | 1367.53 | 282.24
303.15 K | 1363.28 | 209.25
308.15 K | 1359.19 | 159.15
313.15 K | 1355.09 | 123.38
318.15 K | 1350.98 | 97.78
323.15 K | 1346.87 | 78.77
328.15 K | 1342.78 | 61.34
333.15 K | 1338.7 | 50.38
343.15 K | 1330.56 | 35.25
353.15 K | 1322.47 | 25.76
